Experiments:
PD-1/PD-L1 = PD-1/PD-L1 (Homo sapiens (Human), UniProt Q9NZQ7); test: PD-1/PD-L1 Homogeneous Time-Resolved Fluorescence (HTRF) binding assay; conditions: 3 nM PD1, 10 nM PD-L1, 25° C., PBS pH 7.4
Method: PD-1/PD-L1 Homogeneous Time-Resolved Fluorescence (HTRF) Binding Assay
The assays were conducted in a standard black 384-well polystyrene plate with a final volume of 20 μL. Inhibitors were first serially diluted in DMSO and then added to the plate wells before the addition of other reaction components. The final concentration of DMSO in the assay was 1%. The assays were carried out at 25° C. in the PBS buffer (pH 7.4) with 0.05% Tween-20 and 0.1% BSA. Recombinant human PD-L1 protein (19-238) with a Histag at the C-terminus was purchased from AcroBiosystems (PD1-H5229). Recombinant human PD-1 protein (25-167) with Fe tag at the C-terminus was also purchased from AcroBiosystems (PD1-H5257). PD-L1 and PD-1 proteins were diluted in the assay buffer and 10 μL was added to the plate well. Plates were centrifuged and proteins were preincubated with inhibitors for 40 minutes. The incubation was followed by the addition of 10 μL of HTRF detection buffer supplemented with Europium cryptate-labeled anti-human IgG (PerkinElmer-AD0212) specific for Fe and anti-His antibody conjugated to SureLight®-Allophycocyanin (APC, PerkinElmer-AD0059H). After centrifugation, the plate was incubated at 25° C. for 60 min. before reading on a PHERAstar FS plate reader (665 nm/620 nm ratio). Final concentrations in the assay were—3 nM PD1, 10 nM PD-L1, 1 nM europium anti-human IgG and 20 nM anti-His-Allophycocyanin. IC50 determination was performed by fitting the curve of percent control activity versus the log of the inhibitor concentration.

PD-L1/CHO-K1 cells = PD-L1/CHO-K1 cells (Homo sapiens (Human), UniProt Q9NZQ7); test: PD-L1 internalization (FACS, PD-L1/CHO-K1 cells); type: cell-based; conditions: % activation of PD-L1 internalization = 1 − PD-L1 signal; 17 hours incubation
Method: Day 1. Seeding cells: Digest the PD-L1/CHO-K1 cells by trypsin in the flask, then counting the cell number and diluted to 1×10^5 cells/ml. Seeding cells to 6 well plate (Corning, #3516), 2 mL/well. The plates were incubated at 37° C., […] incubator for 24 hours.
Day 2. Preparing compounds and treated cells: Dilute GLC01-258 from 15 mM to 0.5 mM by using DMSO, and 15 mM compound were serial diluted from 15 mM˜15 nM by DMSO, Then 500 times dilute the compounds by using assay buffer. Prepare 0.2% DMSO in assay buffer used for Vehicle control and low control. Take out the plates, aspirated the medium and thrown away. Adding 2 mL of the diluted compounds, vehicle control and low control to corresponding wells. Then incubated the plates for 17 hours at 37° C., 5% CO2 incubator.
Day 3. Preparing samples for FACS: After 17 hours incubation, discarded medium and washed by the PBS. Cells in each well were Digested by trypsin. Centrifuge and discard the supernatant, then wash the cells by DPBS (Ca^2+, Mg^2+ free) for twice. 10 fold dilute the antibody (PE-conjugated mouse anti-human CD274) by DPBS, then adding the staining solution to compounds treated samples and vehicle control sample. The low control only add DPBS without antibody. Incubate the plates at room temperature for 20 minutes and protect from light. After 20 minutes, wash the samples by DPBS for twice. Then centrifuge and discard the supernatant. Resuspend cells by 300 uL DPBS and transfer the samples to 5 mL Polystryrene Round-Bottom Tube (Falcon, #352054), then tested by BD FACSCanto. […].
Set the PD-L1 signal of vehicle control as 100%, PD-L1 signal of Low control as 0%. Then calculate the compound treated samples' PD-L1 signal
0% PD-L1 signal: Low control which stained without anti-CD274
100% PD-L1 Signal: vehicle control which stained with anti-CD274
The % activation of PD-L1 Internalization=1−PD-L1 signal of compound.

Sequence of PD-L1/CHO-K1 cells (Q9NZQ7 19-290): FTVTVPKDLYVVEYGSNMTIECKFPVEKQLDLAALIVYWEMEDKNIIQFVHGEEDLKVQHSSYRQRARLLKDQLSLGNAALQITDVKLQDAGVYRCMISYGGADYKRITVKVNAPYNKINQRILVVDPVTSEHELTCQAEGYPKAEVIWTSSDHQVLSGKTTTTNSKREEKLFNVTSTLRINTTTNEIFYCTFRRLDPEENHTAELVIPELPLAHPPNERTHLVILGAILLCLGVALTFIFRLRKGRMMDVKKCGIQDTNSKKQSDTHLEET
Sequence of PD-1/PD-L1 (Q9NZQ7 19-238): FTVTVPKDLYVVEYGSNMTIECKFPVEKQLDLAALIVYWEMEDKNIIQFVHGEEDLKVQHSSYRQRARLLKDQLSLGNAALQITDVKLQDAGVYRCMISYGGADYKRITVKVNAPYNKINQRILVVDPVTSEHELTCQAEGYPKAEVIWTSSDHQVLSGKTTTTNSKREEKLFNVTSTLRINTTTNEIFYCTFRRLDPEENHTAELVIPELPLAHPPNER

| SMILES | IC50 (PD-1/PD-L1) [nM] | Internalization (PD-L1/CHO-K1 cells) [%] |
| --- | --- | --- |
| O=C(O)[C@H](CO)NCCN1C(=O)COc2c1ccc(-c1cccc(-c3cccc(-c4ccc5c(c4F)OCC(=O)N5CCN[C@@H](CO)C(=O)O)c3Cl)c1Cl)c2F [Compound 557] | 5.33 | 20.30 |
| O=C1COc2cc(-c3cccc(-c4cccc(-c5ccc6c(c5)OCC(=O)N6C[C@@H]5CC(F)(F)CN5)c4Cl)c3Cl)ccc2N1C[C@@H]1CC(F)(F)CN1 [Compound 530] | 76.9 | 1.60 |
| CN(CCN1C(=O)COc2cc(-c3cccc(-c4cccc(-c5ccc6c(c5)OCC(=O)N6CCN(C)C[C@@H]5CCC(=O)N5)c4Cl)c3Cl)ccc21)C[C@@H]1CCC(=O)N1 [Compound 460] | 9.9 | 1.90 |
| O=C(O)[C@@H](CCO)NCCN1C(=O)COc2cc(-c3cccc(-c4cccc(-c5ccc6c(c5)OCC(=O)N6CCN[C@H](CCO)C(=O)O)c4Cl)c3Cl)ccc21 [Compound 552] | 7.25 | 4.90 |
| O=C1COc2cc(-c3cccc(-c4cccc(-c5ccc6c(c5)OCC(=O)N6CCN[C@@H](CO)C(=O)O)c4Cl)c3Cl)ccc2N1 [Compound 542] | 5.24 | 3.30 |
| O=C1COc2cc(-c3cccc(-c4cccc(-c5ccc6c(c5)OCC(=O)N6C[C@@H]5CC6(CC6)CN5)c4Cl)c3Cl)ccc2N1C[C@@H]1CC2(CC2)CN1 [Compound 540] | 10.5 | 10.60 |
| O=C1COc2cc(-c3cccc(-c4cccc(-c5ccc6c(c5)OCC(=O)N6C[C@H]5NC6CCC5C6)c4Cl)c3Cl)ccc2N1C[C@H]1NC2CCC1C2 [Compound 539] | 7.73 | 11.60 |
| O=C(O)[C@@H](CO)NCCN1C(=O)COc2cc(-c3cccc(-c4cccc(-c5ccc6c(c5)OCC(=O)N6CCN[C@H](CO)C(=O)O)c4Cl)c3Cl)ccc21 [Compound 483] | 6.31 | 19.80 |
| NCCN1C(=O)COc2cc(-c3cccc(-c4cccc(-c5ccc6c(c5)OCC(=O)N6CCN)c4Cl)c3Cl)ccc21 [Compound 538] | 8.18 | 3.60 |

Second part, the compound after the results:

| IC50 (PD-1/PD-L1) [nM] | Internalization (PD-L1/CHO-K1 cells) [%] | SMILES |
| --- | --- | --- |
| 5.22 | 6.10 | O=C1COc2cc(-c3cccc(-c4cccc(-c5ccc6c(c5)OCC(=O)N6CCN5CC[C@H](O)C5)c4Cl)c3Cl)ccc2N1CCN1CC[C@H](O)C1 [Compound 476] |
| 2.16 | 5.50 | O=C1CC[C@@H](CN2C(=O)CNc3cc(-c4cccc(-c5cccc(-c6ccc7c(c6)NCC(=O)N7C[C@@H]6CCC(=O)N6)c5Cl)c4Cl)ccc32)N1 [Compound 363] |
| 5.01 | 20.50 | O=C1COc2cc(-c3cccc(-c4cccc(-c5ccc6c(c5)OCC(=O)N6CCNCCO)c4Cl)c3Cl)ccc2N1CCNCCO [Compound 445] |
| 3.23 | 31.50 | CC(CO)(NCCN1C(=O)COc2cc(-c3cccc(-c4cccc(-c5ccc6c(c5)OCC(=O)N6CCNC(C)(CO)C(=O)O)c4Cl)c3Cl)ccc21)C(=O)O (centres unmarked) [Compound 475] |
| 4.81 | 7.80 | C[C@@H](O)[C@H](NCCN1C(=O)COc2cc(-c3cccc(-c4cccc(-c5ccc6c(c5)OCC(=O)N6CCN[C@H](C(=O)O)[C@@H](C)O)c4Cl)c3Cl)ccc21)C(=O)O [Compound 545] |
| 3.89 | 12.20 | O=C1CC[C@@H](CNCCN2C(=O)COc3cc(-c4cccc(-c5cccc(-c6ccc7c(c6)OCC(=O)N7CCNC[C@@H]6CCC(=O)N6)c5Cl)c4Cl)ccc32)N1 [Compound 449] |
| 4.69 | 8.70 | O=C(O)C1CCN(CCN2C(=O)COc3cc(-c4cccc(-c5cccc(-c6ccc7c(c6)OCC(=O)N7CCN6CC[C@H](O)C6)c5Cl)c4Cl)ccc32)C1 (stereo partly drawn) [Compound 481, 1-(2-(7-(2,2′-dichloro-3′-(4-(2-((S)-3-hydroxypyrrolidin-1-yl)ethyl)-3-oxo-3,4-dihydro-2H-benzo[b][1,4]oxazin-7-yl)-[1,1′-biphenyl]-3-yl)-3-oxo-2,3-dihydro-4H-benzo[b][1,4]oxazin-4-yl)ethyl)pyrrolidine-3-carboxylic acid] |

From US20250340529A1, “Heterocyclic Compounds as Immunomodulators of PD-L1 Interactions” (Ascletis BioScience Co., Ltd, priority 2021, published 2025)
